Our source for the response rate and Ki values is article PMC5474226 (Cancer research, 2017).

Where two headings read alike, the source gives them in different places.

Experiment [1] has as its system advanced non-small cell lung cancer. The note with it: ref [8], cited from earlier work.
In experiment [2] the target is granzyme B (activated from pro-granzyme B) (UniProt P04187). The experiment can be described thus: enzyme inhibition assay.
The target of experiment [3] is granzyme B. The note with it: tetrapeptide with C-terminus aspartate modified to aldehyde; ref [21],[22]; cited from earlier work.

UniProt P04187, sequence (P04187 21-247): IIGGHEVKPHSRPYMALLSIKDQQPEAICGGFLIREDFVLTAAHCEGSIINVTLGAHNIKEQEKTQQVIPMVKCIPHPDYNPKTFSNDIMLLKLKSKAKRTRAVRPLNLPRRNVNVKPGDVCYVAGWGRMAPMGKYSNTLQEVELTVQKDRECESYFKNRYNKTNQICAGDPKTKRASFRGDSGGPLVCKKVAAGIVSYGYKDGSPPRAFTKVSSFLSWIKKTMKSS

pembrolizumab: the response rate in experiment [1] (patients with >1% positive PD-L1 staining) is reported as 18%; in experiment [1] (tumors with greater than 50% positive staining for PD-L1), 30%.

Usually Ki stands for a measure of affinity in units of concentration, obtained from inhibition or displacement. As to “NOTA–β-Ala–Gly–Gly–Ile–Glu–Phe–Asp–CHO (NOTA-GZP), gallium-labelled (peptide)”, the inhibition constant (Ki) in experiment [2] amounted to 47 nM. Consider Ile-Glu-Phe-Asp, for which the Ki in experiment [3] was 80 nM.
